Measured values as given in patent US9260408B2, “Dihydroquinoline-2-one derivatives” (Hoffmann-La Roche Inc., priority 2011, dated 2016).
Where a name gives a salt, the structure may show the parent alone.

Columns and labels:
human CYP11B1 = molecular target: T1, human CYP11B1 (Homo sapiens, UniProt P15538); assay: G-402 cellular enzyme assay, human CYP11B1 (cortisol release, HTRF); type: cell-based; settings: G-402 cells expressing human CYP11B1; 1 μM Deoxycortisol
T1 construct: expressed in transfected cells
T1 sequence (P15538 25-503): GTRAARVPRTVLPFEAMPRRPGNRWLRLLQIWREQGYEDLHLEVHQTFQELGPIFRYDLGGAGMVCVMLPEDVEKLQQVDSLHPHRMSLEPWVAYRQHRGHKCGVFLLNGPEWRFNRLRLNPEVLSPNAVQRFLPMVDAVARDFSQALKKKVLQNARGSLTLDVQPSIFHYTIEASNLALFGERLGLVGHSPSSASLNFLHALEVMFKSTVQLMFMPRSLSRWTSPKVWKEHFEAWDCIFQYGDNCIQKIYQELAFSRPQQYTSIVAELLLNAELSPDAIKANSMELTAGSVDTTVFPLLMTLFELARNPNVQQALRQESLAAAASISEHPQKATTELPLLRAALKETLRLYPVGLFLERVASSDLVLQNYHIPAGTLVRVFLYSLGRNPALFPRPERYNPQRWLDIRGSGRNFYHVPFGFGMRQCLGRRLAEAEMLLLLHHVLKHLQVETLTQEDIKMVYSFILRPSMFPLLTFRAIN
Outline: (§1)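 G-402 cells stably expressing human CYP11B2 or CYP11B1, in DMEM/F12 with 2.5% charcoal-treated FCS, were incubated 16 h with compound plus 1 μM deoxycorticosterone (CYP11B2) or 1 μM deoxycortisol (CYP11B1). Aldosterone or cortisol in the supernatant measured by HTRF; EC50 from a 4-parameter MMF fit.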

human CYP11B2 = molecular target: T2, human CYP11B2 (Homo sapiens, UniProt P19099); assay: G-402 cellular enzyme assay, human CYP11B2 (aldosterone release, HTRF); type: cell-based; settings: G-402 cells expressing human CYP11B2; 1 μM Deoxycorticosterone
T2 construct: expressed in transfected cells
T2 sequence (P19099 25-503): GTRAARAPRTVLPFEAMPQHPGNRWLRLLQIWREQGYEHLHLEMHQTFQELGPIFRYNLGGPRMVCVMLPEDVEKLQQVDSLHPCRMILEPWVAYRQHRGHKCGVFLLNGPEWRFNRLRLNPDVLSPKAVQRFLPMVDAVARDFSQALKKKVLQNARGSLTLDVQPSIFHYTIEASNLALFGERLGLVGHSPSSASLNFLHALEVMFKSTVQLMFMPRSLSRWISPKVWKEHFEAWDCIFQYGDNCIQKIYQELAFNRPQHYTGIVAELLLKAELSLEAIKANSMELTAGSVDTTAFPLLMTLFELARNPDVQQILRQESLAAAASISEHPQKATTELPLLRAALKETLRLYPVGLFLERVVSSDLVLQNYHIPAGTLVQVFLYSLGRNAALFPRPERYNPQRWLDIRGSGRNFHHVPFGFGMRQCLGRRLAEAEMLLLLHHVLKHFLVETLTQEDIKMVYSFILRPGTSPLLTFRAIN
Outline: as §1

Row | Structure (SMILES) | EC50 (human CYP11B1) [nM] | EC50 (human CYP11B2) [nM]
1 | CC(C)[C@H](CO)Nc1cncc(-c2ccc3c(c2)CCC(=O)N3C)n1 [Example 31, 6-[6-((R)-1-Hydroxymethyl-2-methyl-propylamino)-pyrazin-2-yl]-1-methyl-3,4-dihydro-1H-quinolin-2-one] | > 3000 | 172
2 | CCS(=O)(=O)NCc1cncc(-c2ccc3c(n2)CCC(=O)N3C)c1 [Example 32, Ethanesulfonic acid [5-(5-methyl-6-oxo-5,6,7,8-tetrahydro-[1,5]naphthyridin-2-yl)-pyridin-3-ylmethyl]-amide] | > 10000 | 1290
3 | O=C1CCc2nc(-c3cccnc3)ccc2N1 [Example 33, 6-Pyridin-3-yl-3,4-dihydro-1H-[1,5]naphthyridin-2-one] | > 10000 | 1260
4 | CN1C(=O)CCc2nc(-c3cccnc3)ccc21 [Example 34, 1-Methyl-6-pyridin-3-yl-3,4-dihydro-1H-[1,5]naphthyridin-2-one] | 29200 | 416
5 | CN1C(=O)CCc2cc(-c3cccnc3)ncc21 [Example 35, 1-Methyl-6-pyridin-3-yl-3,4-dihydro-1H-[1,7]naphthyridin-2-one] | > 10000 | 325
6 | CN1C(=O)CCc2cc(-c3cncc(CN)c3)ccc21 [Example 36, 6-(5-Aminomethyl-pyridin-3-yl)-1-methyl-3,4-dihydro-1H-quinolin-2-one] | 2570 | 71
7 | CCC(=O)NCc1cncc(-c2ccc3c(c2)CCC(=O)N3C)c1 [Example 37, N-[5-(1-Methyl-2-oxo-1,2,3,4-tetrahydro-quinolin-6-yl)-pyridin-3-ylmethyl]-propionamide] | 1590 | 44
8 | CC(C)S(=O)(=O)NCc1cncc(-c2ccc3c(c2)CCC(=O)N3C)c1 [Example 38, Propane-2-sulfonic acid [5-(1-methyl-2-oxo-1,2,3,4-tetrahydro-quinolin-6-yl)-pyridin-3-ylmethyl]-amide] | 1500 | 81
9 | COc1cc(C(=O)NCc2cncc(-c3ccc4c(c3)CCC(=O)N4C)c2)on1 [Example 40, 3-Methoxy-isoxazole-5-carboxylic acid [5-(1-methyl-2-oxo-1,2,3,4-tetrahydro-quinolin-6-yl)-pyridin-3-ylmethyl]-amide] | 750 | 15
10 | CN1C(=O)CCc2cc(-c3cncc(OCCN)c3)ccc21 [Example 42, 6-[5-(2-amino-ethoxy)-pyridin-3-yl]-1-methyl-3,4-dihydro-1H-quinolin-2-one hydrochloride] | 160 | 28
11 | CN1C(=O)CCc2cc(-c3cncc(CN4CCCCS4(=O)=O)c3)ccc21 [Example 44, 6-[5-(1,1-Dioxo-1λ^6-[1,2]thiazinan-2-ylmethyl)-pyridin-3-yl]-1-methyl-3,4-dihydro-1H-quinolin-2-one] | 568 | 5
12 | CN1C(=O)CCc2cc(-c3cncc(OC[C@@H]4CCN4C(=O)OC(C)(C)C)c3)ccc21 [Example 45, (S)-2-[5-(1-Methyl-2-oxo-1,2,3,4-tetrahydro-quinolin-6-yl)-pyridin-3-yloxymethyl]-azetidine-1-carboxylic acid tert-butyl ester] | 863 | 87
13 | CCS(=O)(=O)NCc1cncc(-c2ccc3c(c2)CCC(=O)N3)c1 [Example 55, ethanesulfonic acid [5-(2-oxo-1,2,3,4-tetrahydro-quinolin-6-yl)-pyridin-3-ylmethyl]-amide] | 11100 | 682
14 | CN1C(=O)CCc2cc(-c3cncc(C4(N)CC4)c3)ccc21 [Example 59, 6-[5-(1-Amino-cyclopropyl)-pyridin-3-yl]-1-methyl-3,4-dihydro-1H-quinolin-2-one] | 710 | 33
15 | CN1C(=O)CCc2cc(-c3cncc(OC[C@@H]4CCN4)c3)ccc21 [Example 63, 6-[5-((S)-1-Azetidin-2-ylmethoxy)-pyridin-3-yl]-1-methyl-3,4-dihydro-1H-quinolin-2-one] | 16000 | 731

Next, values leading:

Row | EC50 (human CYP11B1) [nM] | EC50 (human CYP11B2) [nM] | Structure (SMILES)
16 | 120 | 10 | CN1C(=O)CCc2cc(-c3cncc(OCCNC(=O)OC(C)(C)C)c3)ccc21 [Example 39, {2-[5-(1-Methyl-2-oxo-1,2,3,4-tetrahydro-quinolin-6-yl)-pyridin-3-yloxy]-ethyl}-carbamic acid tert-butyl ester]
17 | 5560 | 67 | CN1C(=O)CCc2cc(-c3cncc(CNC(=O)C4CC4)c3)ccc21 [Example 41, Cyclopropanecarboxylic acid [5-(1-methyl-2-oxo-1,2,3,4-tetrahydro-quinolin-6-yl)-pyridin-3-ylmethyl]-amide]
18 | 1560 | 40 | CCC(=O)NCCOc1cncc(-c2ccc3c(c2)CCC(=O)N3C)c1 [Example 43, N-{2-[5-(1-Methyl-2-oxo-1,2,3,4-tetrahydro-quinolin-6-yl)-pyridin-3-yloxy]-ethyl}-propionamide]
19 | 298 | 5 | CN1C(=O)CCc2cc(-c3cncc(O[C@@H]4CCN(C(=O)OC(C)(C)C)C4)c3)c(F)cc21 [Example 46, (R)-3-[5-(7-Fluoro-1-methyl-2-oxo-1,2,3,4-tetrahydro-quinolin-6-yl)-pyridin-3-yloxy]-pyrrolidine-1-carboxylic acid tert-butyl ester]
20 | 61 | 3 | CN1C(=O)CCc2cc(-c3cncc(OC4CN(C(=O)OC(C)(C)C)C4)c3)ccc21 [Example 47, 3-[5-(1-Methyl-2-oxo-1,2,3,4-tetrahydro-quinolin-6-yl)-pyridin-3-yloxy]-azetidine-1-carboxylic acid tert-butyl ester]
21 | 392 | 49 | CN1C(=O)CCc2cc(-c3cncc(O[C@H]4CCN(C(=O)OC(C)(C)C)C4)c3)ccc21 [Example 48, (S)-3-[5-(1-Methyl-2-oxo-1,2,3,4-tetrahydro-quinolin-6-yl)-pyridin-3-yloxy]-pyrrolidine-1-carboxylic acid tert-butyl ester]
22 | 1000 | 271 | CN1C(=O)CCc2cc(-c3cncc(O[C@H]4CCCN(C(=O)OC(C)(C)C)C4)c3)ccc21 [Example 49, (S)-3-[5-(1-Methyl-2-oxo-1,2,3,4-tetrahydro-quinolin-6-yl)-pyridin-3-yloxy]-piperidine-1-carboxylic acid tert-butyl ester]
23 | 24 | 3 | CN1C(=O)CCc2cc(-c3cncc(OC4CCN(C(=O)OC(C)(C)C)CC4)c3)ccc21 [Example 50, 4-[5-(1-Methyl-2-oxo-1,2,3,4-tetrahydro-quinolin-6-yl)-pyridin-3-yloxy]-piperidine-1-carboxylic acid tert-butyl ester]
24 | 1870 | 32 | CN1C(=O)CCc2cc(-c3cncc(OC[C@@H]4CCCN4C(=O)OC(C)(C)C)c3)ccc21 [Example 51, (S)-2-[5-(1-Methyl-2-oxo-1,2,3,4-tetrahydro-quinolin-6-yl)-pyridin-3-yloxymethyl]-pyrrolidine-1-carboxylic acid tert-butyl ester]
25 | 139 | 30 | CN1C(=O)CCc2cc(-c3cncc(O[C@H]4CCN(C(=O)OC(C)(C)C)C4)c3)c(F)cc21 [Example 52, (S)-3-[5-(7-fluoro-1-methyl-2-oxo-1,2,3,4-tetrahydro-quinolin-6-yl)-pyridin-3-yloxy]-pyrrolidine-1-carboxylic acid tert-butyl ester]
26 | 453 | 8 | CN1C(=O)CCc2cc(-c3cncc(O[C@@H]4CCN(C(=O)OC(C)(C)C)C4)c3)ccc21 [Example 53, (R)-3-[5-(1-Methyl-2-oxo-1,2,3,4-tetrahydro-quinolin-6-yl)-pyridin-3-yloxy]-pyrrolidine-1-carboxylic acid tert-butyl ester]
27 | 20100 | 508 | CN1C(=O)CCc2cc(-c3cncc(O[C@H]4CCCNC4)c3)ccc21 [Example 61, 1-Methyl-6-[5-((S)-piperidin-3-yloxy)-pyridin-3-yl]-3,4-dihydro-1H-quinolin-2-one]
28 | 8540 | 177 | CN1C(=O)CCc2cc(-c3cncc(OC4CCNCC4)c3)ccc21 [Example 62, 1-Methyl-6-[5-(piperidin-4-yloxy)-pyridin-3-yl]-3,4-dihydro-1H-quinolin-2-one hydrochloride]
